Here are results for one substance from patent US11197965B2, “Method and system for the administration of a pulmonary surfactant by atomization” (CHIESI FARMACEUTICI S.p.A., priority 2013, dated 2021).

The conditions of the series: in vivo.

Description: Old piglets, weighing between 0.8-2.0 kg, were used.
The procedure was carried out as follows: piglets inhaled 10 mg of lidocaine and lidocaine gel was applied in the oropharynx just before the insertion of a Mayo oropharyngeal atomization cannula. The piglets were then laid on one side according to the randomization protocol, and correct positioning of the oropharyngeal cannula just above the larynx entrance was assessed by fiberbronchoscopy. Curosurf® was thoroughly mixed with 300 MBq of Tc-labeled nanocolloid and the animals received a total of 200 mg/kg Curosurf® (80 mg/mL) through an atomization catheter placed inside the oropharyngeal airway. The surfactant atomization procedure was divided in 4 stages (doses): each stage consisted in the delivery of one fourth of the total surfactant dose with the piglet breathing spontaneously on nasal-CPAP (via special “snout-mask”, see details in methods), followed by 5 minutes of PS-ventilation with PEEP (via snout-mask) to avoid atelectasis and promote delivery of the surfactant to the lower airways. When all the surfactant had been delivered, the oropharyngeal cannula was removed and the piglet received PS-ventilation for 15 min. FiO2 was adjusted to maintain saturation above 85%. To secure the airway under transportation to the gamma camera and scintigraphy, the animals were endotracheally intubated and manually ventilated with a Laerdal Silicone Resuscitator.
The piglets were premedicated with i.m. ketamine, midazolam, and atropine, an ear vein was cannulated, and the animals were sedated with a continuous iv. infusion of dexmedetomedine and ketamine. Sedation was supplemented with small intermittent boluses of iv. propofol when needed. An arterial catheter was placed in the femoral artery under local anaesthesia. Invasive blood pressure, pulse oximetry, cerebral oximetry (INVOS), and the diaphragmatic electrical activity (NAVA catheter) were monitored in all animals.
Group-assignment was random, and arranged so that pigs from the same litter were distributed evenly among the groups, when possible. […]

Turning to poractant alfa [Curosurf], the “amount of surfactant deposited into the lung compartment” value is reported as “more than 61%”. Under “200 mg/kg”, the “percentage of surfactant deposited, pharynx (mean)” value came out at 11.1 percentage and the “percentage of surfactant deposited, trachea (mean)” value was determined as 13.5 percentage.
